Patent US20250270209A1 (INTERLINE THERAPEUTICS, INC., priority 2022, published 2025)
pIC50: −log10 of the molar value.

Legend:
[1] = molecular target: LRRK2 wild type enzyme (Homo sapiens, UniProt Q5S007); assay: Biochemical Assay: LRRK2 TR-FRET (LanthaScreen) kinase assay with LRRKtide substrate; settings: LRRK2 Inhibition, Table 8
Procedure, shortened: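 Human wild-type LRRK2 (3 nM) preincubated 15 min with compound (11-point, 3-fold, top 10 μM), then reacted 120 min at 23 °C with 400 nM LRRKtide and 25 μM ATP, pH 8.0. Stopped with EDTA; Tb-anti-pLRRKtide TR-FRET read after 30 min.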

[2] = molecular target: T1, wild type LRRK2 overexpressed in recombinant HEK-293T cells (Homo sapiens, UniProt Q5S007); assay: pS935 LRRK2 Cell Assay (HTRF, phospho-LRRK2 Ser935); type: cell-based; settings: LRRK2 Inhibition, Table 8, 2 hours compound incubation
T1 construct: host or cells: HEK293T (transient transfection with pCMV-LRRK2 WT plasmid)
T1 sequence (Q5S007 whole entry): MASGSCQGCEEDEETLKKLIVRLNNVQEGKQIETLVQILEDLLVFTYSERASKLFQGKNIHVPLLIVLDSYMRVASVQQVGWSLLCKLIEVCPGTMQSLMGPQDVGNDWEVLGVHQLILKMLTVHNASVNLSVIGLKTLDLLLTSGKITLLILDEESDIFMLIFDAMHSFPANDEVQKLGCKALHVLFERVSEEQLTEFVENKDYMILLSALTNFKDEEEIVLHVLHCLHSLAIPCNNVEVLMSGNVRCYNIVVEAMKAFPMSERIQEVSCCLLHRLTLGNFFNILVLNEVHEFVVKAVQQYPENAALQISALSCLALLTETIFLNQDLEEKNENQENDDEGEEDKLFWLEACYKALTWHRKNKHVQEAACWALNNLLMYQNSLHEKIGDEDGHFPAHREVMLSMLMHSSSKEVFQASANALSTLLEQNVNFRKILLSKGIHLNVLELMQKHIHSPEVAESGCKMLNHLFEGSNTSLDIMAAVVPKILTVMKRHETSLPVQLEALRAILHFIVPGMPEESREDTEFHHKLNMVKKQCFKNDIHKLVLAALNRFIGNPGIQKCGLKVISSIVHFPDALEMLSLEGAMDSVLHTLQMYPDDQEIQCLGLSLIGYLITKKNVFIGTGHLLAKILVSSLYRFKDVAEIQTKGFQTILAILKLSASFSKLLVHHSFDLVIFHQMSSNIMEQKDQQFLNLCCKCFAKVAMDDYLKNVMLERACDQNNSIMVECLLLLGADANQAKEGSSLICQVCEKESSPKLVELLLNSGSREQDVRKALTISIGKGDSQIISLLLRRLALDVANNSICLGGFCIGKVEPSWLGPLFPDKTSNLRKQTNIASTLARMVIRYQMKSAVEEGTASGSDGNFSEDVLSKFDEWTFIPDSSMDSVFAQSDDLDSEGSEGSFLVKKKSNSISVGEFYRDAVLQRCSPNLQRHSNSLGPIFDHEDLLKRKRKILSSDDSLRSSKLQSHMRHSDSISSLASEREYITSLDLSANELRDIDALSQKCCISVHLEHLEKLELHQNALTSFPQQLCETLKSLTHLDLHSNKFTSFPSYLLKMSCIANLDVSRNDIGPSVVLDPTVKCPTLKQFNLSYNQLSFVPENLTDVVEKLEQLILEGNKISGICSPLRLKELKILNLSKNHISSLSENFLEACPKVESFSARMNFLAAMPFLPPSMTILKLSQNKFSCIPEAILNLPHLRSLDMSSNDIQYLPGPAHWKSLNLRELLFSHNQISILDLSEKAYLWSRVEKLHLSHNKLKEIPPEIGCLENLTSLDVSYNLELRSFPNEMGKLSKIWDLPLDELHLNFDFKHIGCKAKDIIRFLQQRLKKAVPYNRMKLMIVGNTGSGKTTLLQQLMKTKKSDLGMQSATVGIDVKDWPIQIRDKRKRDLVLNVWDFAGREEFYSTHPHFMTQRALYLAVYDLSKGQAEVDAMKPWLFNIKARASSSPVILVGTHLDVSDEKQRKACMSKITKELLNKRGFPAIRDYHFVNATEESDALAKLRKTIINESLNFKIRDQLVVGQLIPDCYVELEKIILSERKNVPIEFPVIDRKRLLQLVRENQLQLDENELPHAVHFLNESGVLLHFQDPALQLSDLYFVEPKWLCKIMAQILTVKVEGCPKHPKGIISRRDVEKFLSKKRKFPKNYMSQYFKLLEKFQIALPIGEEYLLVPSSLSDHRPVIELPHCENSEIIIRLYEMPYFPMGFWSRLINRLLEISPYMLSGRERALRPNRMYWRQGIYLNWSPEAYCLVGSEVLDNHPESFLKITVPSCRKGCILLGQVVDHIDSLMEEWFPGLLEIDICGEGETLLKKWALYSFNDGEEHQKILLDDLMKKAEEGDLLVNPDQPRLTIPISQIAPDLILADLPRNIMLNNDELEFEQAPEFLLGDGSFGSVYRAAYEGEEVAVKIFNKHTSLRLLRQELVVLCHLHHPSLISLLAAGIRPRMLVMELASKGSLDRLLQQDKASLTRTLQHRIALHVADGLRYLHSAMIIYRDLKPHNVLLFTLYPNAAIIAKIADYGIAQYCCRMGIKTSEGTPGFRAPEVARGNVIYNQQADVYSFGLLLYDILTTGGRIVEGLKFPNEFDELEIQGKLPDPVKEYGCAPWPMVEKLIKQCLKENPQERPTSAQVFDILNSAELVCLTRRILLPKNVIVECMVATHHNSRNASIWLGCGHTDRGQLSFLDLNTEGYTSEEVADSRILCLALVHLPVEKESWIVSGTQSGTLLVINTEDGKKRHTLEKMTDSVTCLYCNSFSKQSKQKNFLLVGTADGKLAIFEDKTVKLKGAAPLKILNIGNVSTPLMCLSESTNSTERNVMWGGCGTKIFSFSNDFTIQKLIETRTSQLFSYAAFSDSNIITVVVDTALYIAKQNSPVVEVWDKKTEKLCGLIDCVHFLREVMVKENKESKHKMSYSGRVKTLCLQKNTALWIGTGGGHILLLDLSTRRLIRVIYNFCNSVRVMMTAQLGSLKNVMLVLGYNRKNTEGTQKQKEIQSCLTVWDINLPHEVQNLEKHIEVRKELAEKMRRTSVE
Procedure, shortened: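 HEK-293T cells transiently transfected with wild-type LRRK2 for 24 h, plated overnight, then treated 2 h at 37° C with compound (top 10 μM, 3-fold, 9 doses, duplicates, 0.2% DMSO). Lysates probed overnight at 23° C by sandwich HTRF for pSer935; 665/615 nm ratio read.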

Chain of LRRK2 wild type enzyme (Q5S007 whole entry): as above

C[C@@H]1C[C@H](n2c(CC(=O)NCc3cccnn3)nc3cnc4ccc(Cl)cc4c32)CCO1 [Compound 148, 2-{8-chloro-1-[(2R,4R)-2-methyloxan-4-yl]-1H-imidazo[4,5-c]quinolin-2-yl}-N-[(pyridazin-3-yl)methyl]acetamide]
pIC50 [1]: 9.42
pIC50 [2]: 8.35

C[C@@H]1C[C@H](n2c(CC(=O)NCC3CCO3)nc3cnc4ccc(C#N)cc4c32)CCO1 (stereo partly drawn) [Compound 149, 2-{8-cyano-1-[(2R,4R)-2-methyloxan-4-yl]-1H-imidazo[4,5-c]quinolin-2-yl}-N-[(oxetan-2-yl)methyl]acetamide]
pIC50 [1]: 9.15
pIC50 [2]: 7.13

C[C@@H]1C[C@H](n2c(CC(=O)NCc3cnccn3)nc3cnc4ccc(Cl)cc4c32)CCO1 [Compound 150, 2-{8-chloro-1-[(2R,4R)-2-methyloxan-4-yl]-1H-imidazo[4,5-c]quinolin-2-yl}-N-[(pyrazin-2-yl)methyl]acetamide]
pIC50 [1]: 9.33
pIC50 [2]: 8.14

C[C@@H]1C[C@H](n2c(CC(=O)NC3CCc4cccnc43)nc3cnc4ccc(C#N)cc4c32)CCO1 (stereo partly drawn) [Compound 151, 2-{8-cyano-1-[(2R,4R)-2-methyloxan-4-yl]-1H-imidazo[4,5-c]quinolin-2-yl}-N-{5H,6H,7H-cyclopenta[b]pyridin-7-yl}acetamide]
pIC50 [1]: 9.26
pIC50 [2]: 7.63

Cc1cccc(CNC(=O)Cc2nc3cnc4ccc(C#N)cc4c3n2[C@@H]2CCO[C@H](C)C2)n1 [Compound 152, 2-{8-cyano-1-[(2R,4R)-2-methyloxan-4-yl]-1H-imidazo[4,5-c]quinolin-2-yl}-N-[(6-methylpyridin-2-yl)methyl]acetamide]
pIC50 [1]: 9.50
pIC50 [2]: 8.47

C[C@@H]1C[C@H](n2c(CC(=O)NC[C@H]3CCCO3)nc3cnc4ccc(C#N)cc4c32)CCO1 [Compound 153, 2-{8-cyano-1-[(2R,4R)-2-methyloxan-4-yl]-1H-imidazo[4,5-c]quinolin-2-yl}-N-{[(2R)-oxolan-2-yl]methyl} acetamide]
pIC50 [1]: 9.29
pIC50 [2]: 7.67

C[C@@H]1C[C@H](n2c(CC(=O)NC[C@@H]3CCCO3)nc3cnc4ccc(C#N)cc4c32)CCO1 [Compound 154, 2-{8-cyano-1-[(2R,4R)-2-methyloxan-4-yl]-1H-imidazo[4,5-c]quinolin-2-yl}-N-{[(2S)-oxolan-2-yl]methyl}acetamide]
pIC50 [1]: 9.17
pIC50 [2]: 7.41

C[C@@H]1C[C@H](n2c(CC(=O)Nc3ccccn3)nc3cnc4ccc(C#N)cc4c32)CCO1 [Compound 155, 2-{8-cyano-1-[(2R,4R)-2-methyloxan-4-yl]-1H-imidazo[4,5-c]quinolin-2-yl}-N-(pyridin-2-yl)acetamide]
pIC50 [1]: 9.36
pIC50 [2]: 8.54

Cc1cc(NC(=O)Cc2nc3cnc4ccc(C#N)cc4c3n2[C@@H]2CCO[C@H](C)C2)no1 [Compound 156, 2-{8-cyano-1-[(2R,4R)-2-methyloxan-4-yl]-1H-imidazo[4,5-c]quinolin-2-yl}-N-(5-methyl-1,2-oxazol-3-yl)acetamide]
pIC50 [1]: 9.28
pIC50 [2]: 8.17

C[C@@H]1C[C@H](n2c(CC(=O)NCc3ccn(C)n3)nc3cnc4ccc(C#N)cc4c32)CCO1 [Compound 157, 2-{8-cyano-1-[(2R,4R)-2-methyloxan-4-yl]-1H-imidazo[4,5-c]quinolin-2-yl}-N-[(1-methyl-1H-pyrazol-3-yl)methyl]acetamide]
pIC50 [1]: 9.30
pIC50 [2]: 7.59

C[C@@H]1C[C@H](n2c(CC(=O)Nc3cnn(C)c3CO)nc3cnc4ccc(C#N)cc4c32)CCO1 [Compound 158, 2-{8-cyano-1-[(2R,4R)-2-methyloxan-4-yl]-1H-imidazo[4,5-c]quinolin-2-yl}-N-[5-(hydroxymethyl)-1-methyl-1H-pyrazol-4-yl]acetamide]
pIC50 [1]: 9.34
pIC50 [2]: 6.57

C[C@@H]1C[C@H](n2c(CC(=O)NCC3CC3)nc3cnc4ccc(C5CC5)cc4c32)CCO1 [Compound 159, 2-{8-cyclopropyl-1-[(2R,4R)-2-methyloxan-4-yl]-1H-imidazo[4,5-c]quinolin-2-yl}-N-(cyclopropylmethyl)acetamide]
pIC50 [1]: 8.78
pIC50 [2]: 7.03

COc1ccc2ncc3nc(CC(=O)NC4CC4)n([C@@H]4CCO[C@H](C)C4)c3c2c1 [Compound 160, N-cyclopropyl-2-{8-methoxy-1-[(2R,4R)-2-methyloxan-4-yl]-1H-imidazo[4,5-c]quinolin-2-yl}acetamide]
pIC50 [1]: 8.55
pIC50 [2]: 6.48

C[C@@H]1C[C@H](n2c(CC(=O)NCc3cc(C4CC4)on3)nc3cnc4ccc(C#N)cc4c32)CCO1 [Compound 161, 2-{8-cyano-1-[(2R,4R)-2-methyloxan-4-yl]-1H-imidazo[4,5-c]quinolin-2-yl}-N-[(5-cyclopropyl-1,2-oxazol-3-yl)methyl]acetamide]
pIC50 [1]: 9.45
pIC50 [2]: 8.36

C[C@@H]1C[C@H](n2c(CC(=O)N[C@H]3C[C@@H](OCc4ccccn4)C3)nc3cnc4ccc(C#N)cc4c32)CCO1 [Compound 162, 2-{8-cyano-1-[(2R,4R)-2-methyloxan-4-yl]-1H-imidazo[4,5-c]quinolin-2-yl}-N-[(1rs,3rs)-3-[(pyridin-2-yl)methoxy]cyclobutyl]acetamide]
pIC50 [1]: 9.31
pIC50 [2]: 7.26

C[C@@H]1C[C@H](n2c(CC(=O)NCCO)nc3cnc4ccc(Cl)cc4c32)CCO1 [Compound 163, 2-{8-chloro-1-[(2R,4R)-2-methyloxan-4-yl]-1H-imidazo[4,5-c]quinolin-2-yl}-N-(2-hydroxyethyl)acetamide]
pIC50 [1]: 9.17
pIC50 [2]: 7.36

COCCNC(=O)Cc1nc2cnc3ccc(Cl)cc3c2n1[C@@H]1CCO[C@H](C)C1 [Compound 164, 2-{8-chloro-1-[(2R,4R)-2-methyloxan-4-yl]-1H-imidazo[4,5-c]quinolin-2-yl}-N-(2-methoxyethyl)acetamide]
pIC50 [1]: 9.43
pIC50 [2]: 7.82

C[C@@H]1C[C@H](n2c(CC(=O)Nc3ccno3)nc3cnc4ccc(C#N)cc4c32)CCO1 [Compound 165, 2-{8-cyano-1-[(2R,4R)-2-methyloxan-4-yl]-1H-imidazo[4,5-c]quinolin-2-yl}-N-(1,2-oxazol-5-yl)acetamide]
pIC50 [1]: 9.10
pIC50 [2]: 7.97

COCCCNC(=O)Cc1nc2cnc3ccc(C#N)cc3c2n1[C@@H]1CCO[C@H](C)C1 [Compound 166, 2-{8-cyano-1-[(2R,4R)-2-methyloxan-4-yl]-1H-imidazo[4,5-c]quinolin-2-yl}-N-(3-methoxypropyl)acetamide]
pIC50 [1]: 9.44
pIC50 [2]: 7.92

C[C@@H]1C[C@H](n2c(CC(=O)NCCC(F)(F)F)nc3cnc4ccc(C#N)cc4c32)CCO1 [Compound 167, 2-{8-cyano-1-[(2R,4R)-2-methyloxan-4-yl]-1H-imidazo[4,5-c]quinolin-2-yl}-N-(3,3,3-trifluoropropyl)acetamide]
pIC50 [1]: 9.20
pIC50 [2]: 7.34

C[C@@H]1C[C@H](n2c(CC(=O)Nc3cccnn3)nc3cnc4ccc(C#N)cc4c32)CCO1 [Compound 168, 2-{8-cyano-1-[(2R,4R)-2-methyloxan-4-yl]-1H-imidazo[4,5-c]quinolin-2-yl}-N-(pyridazin-3-yl)acetamide]
pIC50 [1]: 9.43
pIC50 [2]: 8.06

C[C@@H]1C[C@H](n2c(CC(=O)Nc3ccnn3C)nc3cnc4ccc(C#N)cc4c32)CCO1 [Compound 169, 2-{8-cyano-1-[(2R,4R)-2-methyloxan-4-yl]-1H-imidazo[4,5-c]quinolin-2-yl}-N-(1-methyl-1H-pyrazol-5-yl)acetamide]
pIC50 [1]: 9.50
pIC50 [2]: 7.84

C[C@@H]1C[C@H](n2c(CCC(=O)NCC3CC3)nc3cnc4ccc(C#N)cc4c32)CCO1 [Compound 170, 3-{8-cyano-1-[(2R,4R)-2-methyloxan-4-yl]-1H-imidazo[4,5-c]quinolin-2-yl}-N-(cyclopropylmethyl)propanamide]
pIC50 [1]: 8.51
pIC50 [2]: 6.48

COCCn1cc(N2CC(c3nc4cnc5ccc(C#N)cc5c4n3[C@@H]3CCO[C@H](C)C3)CC2=O)cn1 (stereo partly drawn) [Compound 171, 2-{1-[1-(2-methoxyethyl)-1H-pyrazol-4-yl]-5-oxopyrrolidin-3-yl}-1-[(2R,4R)-2-methyloxan-4-yl]-1H-imidazo[4,5-c]quinoline-8-carbonitrile]
pIC50 [1]: 8.84
pIC50 [2]: 6.36

C[C@@H]1C[C@H](n2c(CC(=O)NC[C@H]3CCOC3)nc3cnc4ccc(C#N)cc4c32)CCO1 [Compound 172, 2-{8-cyano-1-[(2R,4R)-2-methyloxan-4-yl]-1H-imidazo[4,5-c]quinolin-2-yl}-N-{[(3R)-oxolan-3-yl]methyl}acetamide]
pIC50 [1]: 9.25
pIC50 [2]: 7.42

C[C@@H]1C[C@H](n2c(CC(=O)NC[C@@H]3CCOC3)nc3cnc4ccc(C#N)cc4c32)CCO1 [Compound 173, 2-{8-cyano-1-[(2R,4R)-2-methyloxan-4-yl]-1H-imidazo[4,5-c]quinolin-2-yl}-N-{[(3S)-oxolan-3-yl]methyl}acetamide]
pIC50 [1]: 9.38
pIC50 [2]: 7.42

COCCn1ccc(NC(=O)Cc2nc3cnc4ccc(C#N)cc4c3n2[C@@H]2CCO[C@H](C)C2)n1 [Compound 174, 2-{8-cyano-1-[(2R,4R)-2-methyloxan-4-yl]-1H-imidazo[4,5-c]quinolin-2-yl}-N-[1-(2-methoxyethyl)-1H-pyrazol-3-yl]acetamide]
pIC50 [1]: 9.50
pIC50 [2]: 8.27

C[C@@H]1C[C@H](n2c(CC(=O)Nc3ccn(CCO)n3)nc3cnc4ccc(C#N)cc4c32)CCO1 [Compound 175, 2-{8-cyano-1-[(2R,4R)-2-methyloxan-4-yl]-1H-imidazo[4,5-c]quinolin-2-yl}-N-[1-(2-hydroxyethyl)-1H-pyrazol-3-yl]acetamide]
pIC50 [1]: 9.49
pIC50 [2]: 6.88
